pIC50: −log10 of the molar value. Activity calls are given as the source filed them. The calls are words filed in the database; no cut-off is given here.
Columns and labels:
[1] = biological target: T1, L-lactate dehydrogenase A chain (Homo sapiens, UniProt P00338)
Description: Inhibition of human liver LDHA using sodium pyruvate as substrate after 5 mins in presence of NAPDH and EDTA by diaphorase/resazurin based fluorescence assay

[2] = Drug level in human MIAPaCa2 cells by LC-MS/MS analysis; assay type: ADME, cell-based; conditions: mia paca-2
[3] = biological target: Isocitrate dehydrogenase [NADP] cytoplasmic (Homo sapiens, UniProt O75874); assay: Inhibition of wild type IDH1 (unknown origin) using isocitrate as substrate preincubated for 30 mins followed by substrate addition in presence of NADP+ measured up to 5 mins by resorufin-based fluorescence assay
[4] = Drug level in human A673 cells by LC-MS/MS analysis; assay type: ADME, cell-based
[5] = Inhibition of pig heart MDH using malic acid as substrate preincubated for 10 mins followed by substrate addition measured up to 5 mins by resorufin-based fluorescence assay; parameters: species or system Sus scrofa
[6] = biological target: T1, L-lactate dehydrogenase A chain; remark: listed apart in the source
Description: Inhibition of human liver LDHA using sodium pyruvate as substrate after 5 mins in presence of NAPDH and in absence of EDTA by diaphorase/resazurin based fluorescence assay

[7] = biological target: T2, L-lactate dehydrogenase (Homo sapiens, UniProt V9HWB9); assay: Inhibition of LDH in human A673 cells assessed as reduction in lactate production preincubated for 2 hrs measured after 30 mins by high throughput fluorescence assay; assay type: cell-based
[8] = biological target: T2, L-lactate dehydrogenase; assay: Inhibition of LDH in human MIAPaCa2 cells assessed as reduction in lactate production preincubated for 2 hrs measured after 30 mins by high throughput fluorescence assay; assay type: cell-based

Chain of Isocitrate dehydrogenase [NADP] cytoplasmic (O75874 whole entry): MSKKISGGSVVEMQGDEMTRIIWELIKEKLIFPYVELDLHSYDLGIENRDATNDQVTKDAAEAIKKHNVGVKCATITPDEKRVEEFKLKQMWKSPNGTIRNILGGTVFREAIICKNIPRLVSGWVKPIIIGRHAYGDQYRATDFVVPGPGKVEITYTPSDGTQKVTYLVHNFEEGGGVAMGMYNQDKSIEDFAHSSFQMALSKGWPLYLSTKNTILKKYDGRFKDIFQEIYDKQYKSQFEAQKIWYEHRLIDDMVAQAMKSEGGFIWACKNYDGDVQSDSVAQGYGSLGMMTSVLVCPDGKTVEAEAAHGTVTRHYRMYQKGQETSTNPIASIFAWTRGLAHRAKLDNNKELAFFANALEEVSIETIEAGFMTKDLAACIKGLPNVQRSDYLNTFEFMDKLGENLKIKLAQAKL

Row | Structure (SMILES) | pIC50 [1] | pIC50 [6] | inhibition [7] | inhibition [8] | other results
1 | NS(=O)(=O)N1CCN(Cc2cn(-c3nc(C(=O)O)cs3)nc2-c2ccccc2)CC1 | 4.76 |  |  |  | 
2 | NS(=O)(=O)c1ccc(Nc2cn(-c3nc(C(=O)O)cs3)nc2-c2cccc(-c3ccccc3)c2)cc1 |  |  |  |  | Drug uptake [2]: Active; pIC50 [3]: < 4.24; Drug uptake [4]: Active; pIC50 [5]: 4.42
3 | O=C(O)c1csc(-n2nc(-c3cccc(OC(F)(F)F)c3)cc2O)n1 | < 4.24 | 6.52 | inactive | inactive | 
4 | NS(=O)(=O)c1ccc(Oc2cn(-c3nc(C(=O)O)cs3)nc2-c2ccccc2)cc1 | 6.91 |  |  |  | 
5 | NS(=O)(=O)c1cccc(Cc2c(-c3ccc(F)c(F)c3)nn(-c3nc(C(=O)O)cs3)c2O)c1 | < 4.24 |  |  |  | 
6 | NS(=O)(=O)c1ccc(Cc2c(-c3ccccc3)nn(-c3nc(C(=O)O)cs3)c2CC2CC2)cc1 |  |  |  |  | Drug uptake [2]: Active; pIC50 [3]: 4.32; Drug uptake [4]: Active; pIC50 [5]: < 4.24
7 | O=C(O)c1csc(-n2nc(-c3cccc(C(F)(F)F)c3)cc2O)n1 | < 4.24 | 6.72 | inactive | inactive | 
8 | NS(=O)(=O)c1ccc(Cc2c(-c3cccc(-c4ccccc4)c3)nn(-c3nc(C(=O)O)cs3)c2O)cc1 |  |  |  |  | Drug uptake [2]: Active; pIC50 [3]: 4.32; Drug uptake [4]: Active; pIC50 [5]: < 4.24
9 | Cc1c(Cc2ccc(S(N)(=O)=O)cc2)c(-c2ccccc2)nn1-c1nc(C(=O)O)cs1 | 7.38 |  |  |  | 
10 | NS(=O)(=O)c1ccc(Cc2c(-c3ccccc3)nn(-c3nc(CO)cs3)c2C(F)(F)F)cc1 | 4.59 |  |  |  | 
11 | CNS(=O)(=O)c1ccc(Cc2c(-c3cccc(-c4ccccc4)c3)nn(-c3nc(C(=O)O)cs3)c2O)cc1 | < 4.24 |  |  |  | 
12 | NS(=O)(=O)c1ccc(Cc2cn(-c3nc(C(O)C(F)(F)F)cs3)nc2-c2ccccc2)cc1 (stereo not drawn) | < 4.24 |  |  |  | 
13 | O=C(O)c1csc(-n2nc(-c3ccccc3)cc2C(F)F)n1 | < 4.24 | < 4.24 | inactive | inactive | 
14 | O=C(O)c1csc(-n2nc(-c3ccncc3)cc2O)n1 | < 4.24 | 6.17 | inactive | inactive | 
15 | NS(=O)(=O)c1ccc(Cc2c(-c3cccc(-c4ccccc4F)c3)nn(-c3nc(C(=O)O)cs3)c2O)cc1 |  |  |  |  | Drug uptake [2]: Active; pIC50 [3]: < 4.24; Drug uptake [4]: Active
16 | NS(=O)(=O)c1ccc(Nc2cn(-c3nc(C(=O)O)cs3)nc2-c2ccccc2)cc1 |  |  |  |  | Drug uptake [2]: Active; pIC50 [3]: < 4.24; Drug uptake [4]: Active; pIC50 [5]: < 4.24
17 | NS(=O)(=O)c1ccc(Cc2c(-c3ccccc3)nn(-c3nc(C(=O)O)cs3)c2-c2ccccc2)cc1 | 6.86 |  |  |  | 
18 | O=C(O)c1csc(-n2nc(-c3ccc(Cl)cc3)cc2C(F)(F)F)n1 | 4.56 | 4.58 | inactive | inactive | 
19 | NC(=O)c1csc(-n2nc(-c3cccc(-c4ccccc4)c3)c(Cc3ccc(S(N)(=O)=O)cc3)c2O)n1 | 4.56 |  |  |  | 
20 | NS(=O)(=O)c1ccc(Cc2c(-c3ccccc3)nn(-c3nc(C(=O)O)cs3)c2C2CC2)cc1 |  |  |  |  | Drug uptake [2]: Active; pIC50 [3]: < 4.24; Drug uptake [4]: Active; pIC50 [5]: 4.42
21 | O=C(O)c1csc(-n2nc(-c3cc(F)cc(F)c3)cc2O)n1 | < 4.24 | 6.96 | inactive | inactive | 
22 | O=C(O)c1csc(-n2nc(-c3cccc(F)c3)cc2O)n1 | < 4.24 | 6.79 | inactive | inactive | 
23 | O=C(O)c1csc(-n2nc(-c3cccc(Cl)c3)cc2C(F)(F)F)n1 | < 4.24 | < 4.24 | inactive | inactive | 
24 | Nc1cc(-c2ccccc2)nn1-c1nc(C(=O)O)cs1 | < 4.24 | 4.57 | inactive | inactive | 
25 | O=C(O)c1csc(-n2nc(-c3ccccn3)cc2O)n1 | < 4.24 | 5.99 | inactive | inactive | 
26 | NS(=O)(=O)c1ccc(Cc2c(-c3cccc(-c4ccccc4)c3)nn(-c3nc(-c4nnn[nH]4)cs3)c2O)cc1 | < 4.24 |  |  |  | 
27 | Cc1cc(-c2ccccc2)nn1-c1nc(C(=O)O)cs1 | < 4.24 | 4.81 | inactive | inactive | 
28 | O=C(O)c1ccc(Cc2c(-c3cccc(-c4ccccc4)c3)nn(-c3nc(C(=O)O)cs3)c2O)cc1 | 4.47 |  |  |  | 

From ChEMBL document CHEMBL4028893, “Discovery and Optimization of Potent, Cell-Active Pyrazole-Based Inhibitors of Lactate Dehydrogenase (LDH)” (J Med Chem, 2017)
